The values that follow come from patent US20200069691A1, “HETEROCYCLIC COMPOUNDS AS HIV PROTEASE INHIBITORS” (Merck Sharp & Dohme Corp., priority 2016, published 2020).

The target in the assay is T1, wild-type HIV-1 protease (Human immunodeficiency virus type 1 group M subtype B, UniProt P04585).
T1 construct: Escherichia coli expressed wild-type HIV-1 protease protein
Put plainly: Assay for Inhibition of Microbial Expressed HIV Protease (peptide substrate cleavage, LC-MS/MS readout). It counts as biochemical. To be noted: E. coli expressed wild-type HIV-1 protease, mean of at least two independent experiments, read-out: HIV Pr Enzyme HIV1 PR IC50. The method, then:
Assay for Inhibition of Microbial Expressed HIV Protease
Inhibition of Escherichia coli expressed wild-type HIV-1 protease protein was carried out with a peptide substrate [Val-Ser-Gln-Asn-(βnaphtyl)Ala-Pro-Ile-Val]. The inhibitor compound was preincubated with HIV-1 protease enzyme in assay buffer (50 mM sodium acetate, pH 5.5, 100 mM NaCl, and 0.1% BSA) for 30 minutes at room temperature. Peptide substrate was added to 400 μM in a total volume of 20 μL containing […] HIV-1 protease (final) after which the reaction was incubated for 1 hour at 30° C. […] The extent of inhibition of the reaction was determined from the peak area of the products.
Data shown in the table reflects the mean of at least two independent experiments.

As usually defined, the IC50 is the concentration at which inhibition is half-maximal.

Turning to `N=C1N[C@](CCCC(F)(F)F)(c2ccc(F)cc2)C(=O)N1Cc1ccc(C(F)(F)F)c(C(=O)N2Cc3cnc(Cl)nc3C2)c1` [Compound 35, (5R)-3-{3-[(2-chloro-5,7-dihydro-6H-pyrrolo[3,4-d]pyrimidin-6-yl)carbonyl]-4-(trifluoromethyl)-benzyl}-5-(4-fluorophenyl)-2-imino-5-(4,4,4-trifluorobutyl)-imidazolidin-4-one], the IC50 was found to be 3.42 nM.

For `N=C1N[C@](CCCC(F)(F)F)(c2ccc(F)cc2)C(=O)N1Cc1ccc(C(F)(F)F)c(C(=O)N2Cc3cnc(N[C@@H]4CCOC4)nc3C2)c1` [Compound 36, (5R)-5-(4-fluorophenyl)-2-imino-3-[3-({2-[(3R)-tetrahydrofuran-3-ylamino]-5,7-dihydro-6H-pyrrolo[3,4-d]pyrimidin-6-yl}carbonyl)-4-(trifluoromethyl)-benzyl]-5-(4,4,4-trifluorobutyl)-imidazolidin-4-one], the IC50 came to 3.51 nM.

As for `N=C1N[C@](CCC2CC2)(c2ccc(F)cc2)C(=O)N1C(CCc1ccccc1)c1ccc(C(F)(F)F)c(C(=O)N2CCn3c(nnc3C(F)(F)F)C2)c1` (stereo partly drawn) [Compound 37, (5R)-5-(2-cyclopropylethyl)-5-(4-fluorophenyl)-2-imino-3-{3-phenyl-1-[4-(trifluoromethyl)-3-{[3-(trifluoromethyl)-5,6-dihydro-[1,2,4]triazolo[4,3-a]pyrazin-7(8H)-yl]carbonyl}phenyl]propyl} imidazolidin-4-one], the half-maximal inhibitory concentration (IC50) stood at 3.89 nM.

On to `CC(C)OCC(c1ccc(C(F)(F)F)c(C(=O)N2Cc3nccnc3C2)c1)N1C(=N)N[C@](CCC2CC2)(c2ccc(F)cc2)C1=O` (stereo partly drawn) [Compound 38, (5R)-5-(2-cyclopropylethyl)-3-{1-[3-(5,7-dihydro-6H-pyrrolo[3,4-b]pyrazin-6-ylcarbonyl)-4-(trifluoromethyl)phenyl]-2-(1-methylethoxy)ethyl}-5-(4-fluorophenyl)-2-iminoimidazolidin-4-one], for which the IC50 was 4.03 nM.

Regarding `N=C1N[C@](CCCC(F)(F)F)(c2ccc(F)cc2)C(=O)N1Cc1ccc(C(F)(F)F)c(C(=O)N2Cc3cnc(-c4cnc5[nH]ccc5c4)nc3C2)c1` [Compound 39, (5R)-5-(4-fluorophenyl)-2-imino-3-[3-{[2-(1H-pyrrolo[2,3-b]pyridin-5-yl)-5,7-dihydro-6H-pyrrolo[3,4-d]pyrimidin-6-yl]carbonyl}-4-(trifluoromethyl)benzyl]-5-(4,4,4-trifluorobutyl)imidazolidin-4-one], the IC50 was 4.1 nM.

With `N=C1N[C@](CCCC(F)(F)F)(c2ccc(F)cc2)C(=O)N1Cc1ccc(C(F)(F)F)c(C(=O)N2Cc3cnc(-c4cccc(-c5ccn[nH]5)c4)nc3C2)c1` [Compound 40, (5R)-5-(4-fluorophenyl)-2-imino-3-[3-({2-[3-(1H-pyrazol-5-yl)phenyl]-5,7-dihydro-6H-pyrrolo[3,4-d]pyrimidin-6-yl}carbonyl)-4-(trifluoromethyl)benzyl]-5-(4,4,4-trifluorobutyl)imidazolidin-4-one], the IC50 was 4.13 nM.

Consider `Cn1ccc2c(-c3ncc4c(n3)CN(C(=O)c3cc(CN5C(=N)N[C@](CCCC(F)(F)F)(c6ccc(F)cc6)C5=O)ccc3C(F)(F)F)C4)cccc21` [Compound 41, (5R)-5-(4-fluorophenyl)-2-imino-3-[3-{[2-(1-methyl-1H-indol-4-yl)-5,7-dihydro-6H-pyrrolo[3,4-d]pyrimidin-6-yl]carbonyl}-4-(trifluoromethyl)benzyl]-5-(4,4,4-trifluorobutyl)imidazolidin-4-one], for which the IC50 is 4.23 nM.

`CC(C)CC(c1ccc(C(F)(F)F)c(C(=O)N2CCn3c(nnc3C(F)(F)F)C2)c1)N1C(=N)N[C@](C[C@@H]2CCOC2)(c2ccc(F)cc2)C1=O` (stereo partly drawn) [Compound 42, (5R)-5-(4-fluorophenyl)-2-imino-3-{3-methyl-1-[4-(trifluoromethyl)-3-{[3-(trifluoromethyl)-5,6-dihydro-[1,2,4]triazolo[4,3-a]pyrazin-7(8H)-yl]carbonyl}phenyl]butyl}-5-[(3R)-tetrahydrofuran-3-ylmethyl]-imidazolidin-4-one]: the IC50 is 4.26 nM.

Take `Cn1ncc2cc(-c3ncc4c(n3)CN(C(=O)c3cc(CN5C(=N)N[C@](CCCC(F)(F)F)(c6ccc(F)cc6)C5=O)ccc3C(F)(F)F)C4)ccc21` [Compound 43, (5R)-5-(4-fluorophenyl)-2-imino-3-[3-{[2-(1-methyl-1H-indazol-5-yl)-5,7-dihydro-6H-pyrrolo[3,4-d]pyrimidin-6-yl]carbonyl}-4-(trifluoromethyl)benzyl]-5-(4,4,4-trifluorobutyl)imidazolidin-4-one]: the IC50 turned out to be 4.47 nM.

For `CS(=O)(=O)Nc1cccc(-c2ncc3c(n2)CN(C(=O)c2cc(CN4C(=N)N[C@](CCCC(F)(F)F)(c5ccc(F)cc5)C4=O)ccc2C(F)(F)F)C3)c1` [Compound 44, N-[3-(6-{[5-{[(4R)-4-(4-fluorophenyl)-2-imino-5-oxo-4-(4,4,4-trifluorobutyl)imidazolidin-1-yl]methyl}-2-(trifluoromethyl)-phenyl]carbonyl}-6,7-dihydro-5H-pyrrolo[3,4-d]pyrimidin-2-yl)phenyl]methanesulfonamide], the IC50 was determined as 4.55 nM.

As for `CN1CCOc2cc(-c3ncc4c(n3)CN(C(=O)c3cc(CN5C(=N)N[C@](CCCC(F)(F)F)(c6ccc(F)cc6)C5=O)ccc3C(F)(F)F)C4)cnc21` [Compound 45, (5R)-5-(4-fluorophenyl)-2-imino-3-[3-{[2-(4-methyl-3,4-dihydro-2H-pyrido[3,2-b][1,4]oxazin-7-yl)-5,7-dihydro-6H-pyrrolo[3,4-d]pyrimidin-6-yl]carbonyl}-4-(trifluoromethyl)benzyl]-5-(4,4,4-trifluorobutyl)imidazolidin-4-one], the IC50 is 4.6 nM.

`CC(C)Cn1cc(-c2ncc3c(n2)CN(C(=O)c2cc(CN4C(=N)N[C@](CCCC(F)(F)F)(c5ccc(F)cc5)C4=O)ccc2C(F)(F)F)C3)cn1` [Compound 46, (5R)-5-(4-fluorophenyl)-2-imino-3-[3-({2-[1-(2-methylpropyl)-1H-pyrazol-4-yl]-5,7-dihydro-6H-pyrrolo[3,4-d]pyrimidin-6-yl}carbonyl)-4-(trifluoromethyl)-benzyl]-5-(4,4,4-trifluorobutyl)-imidazolidin-4-one]: the 50% inhibitory concentration (IC50) turned out to be 4.82 nM.

With `N=C1N[C@](CCCC(F)(F)F)(c2ccc(F)cc2)C(=O)N1Cc1ccc(C(F)(F)F)c(C(=O)N2Cc3cnc(-c4cccnc4)nc3C2)c1` [Compound 47, (5R)-5-(4-fluorophenyl)-2-imino-3-{3-[(2-pyridin-3-yl-5,7-dihydro-6H-pyrrolo[3,4-d]pyrimidin-6-yl)carbonyl]-4-(trifluoromethyl)-benzyl}-5-(4,4,4-trifluorobutyl)-imidazolidin-4-one], the IC50 worked out at 4.91 nM.

In the case of `Cc1nnc(-c2cccc(-c3ncc4c(n3)CN(C(=O)c3cc(CN5C(=N)N[C@](CCCC(F)(F)F)(c6ccc(F)cc6)C5=O)ccc3C(F)(F)F)C4)c2)o1` [Compound 48, (5R)-5-(4-fluorophenyl)-2-imino-3-[3-({2-[3-(5-methyl-1,3,4-oxadiazol-2-yl)phenyl]-5,7-dihydro-6H-pyrrolo[3,4-d]pyrimidin-6-yl}carbonyl)-4-(trifluoromethyl)-benzyl]-5-(4,4,4-trifluorobutyl)-imidazolidin-4-one], the IC50 was found to be 5.26 nM.

Regarding `N=C1N[C@](CCCC(F)(F)F)(c2ccc(F)cc2)C(=O)N1Cc1ccc(C(F)(F)F)c(C(=O)N2Cc3cnc(-c4cncnc4)nc3C2)c1` [Compound 49, (5R)-5-(4-fluorophenyl)-2-imino-3-{3-[(2-pyrimidin-5-yl-5,7-dihydro-6H-pyrrolo[3,4-d]pyrimidin-6-yl)carbonyl]-4-(trifluoromethyl)-benzyl}-5-(4,4,4-trifluorobutyl)-imidazolidin-4-one], the IC50 was 5.43 nM.

With `CSc1nnc2n1CCN(C(=O)c1cc(CN3C(=N)N[C@](CCCC(F)(F)F)(c4ccc(F)cc4)C3=O)ccc1C(F)(F)F)C2` [Compound 50, (5R)-5-(4-fluorophenyl)-2-imino-3-[3-{[3-(methylsulfanyl)-5,6-dihydro[1,2,4]triazolo[4,3-a]pyrazin-7(8H)-yl]carbonyl}-4-(trifluoromethyl)benzyl]-5-(4,4,4-trifluorobutyl)imidazolidin-4-one], the IC50 came to 5.49 nM.

On to `CC(C)Nc1ncc2c(n1)CN(C(=O)c1cc(CN3C(=N)N[C@](CCCC(F)(F)F)(c4ccc(F)cc4)C3=O)ccc1C(F)(F)F)C2` [Compound 51, (5R)-5-(4-fluorophenyl)-2-imino-3-[3-({2-[(1-methylethyl)amino]-5,7-dihydro-6H-pyrrolo[3,4-d]pyrimidin-6-yl}carbonyl)-4-(trifluoromethyl)benzyl]-5-(4,4,4-trifluorobutyl)imidazolidin-4-one], for which the IC50 was 5.51 nM.

In the case of `COc1cc(-c2ncc3c(n2)CN(C(=O)c2cc(CN4C(=N)N[C@](CCCC(F)(F)F)(c5ccc(F)cc5)C4=O)ccc2C(F)(F)F)C3)ccn1` [Compound 52, (5R)-5-(4-fluorophenyl)-2-imino-3-[3-{[2-(2-methoxypyridin-4-yl)-5,7-dihydro-6H-pyrrolo[3,4-d]pyrimidin-6-yl]carbonyl}-4-(trifluoromethyl)benzyl]-5-(4,4,4-trifluorobutyl)imidazolidin-4-one], the half-inhibitory concentration (IC50) came out at 5.58 nM.

`N=C1N[C@](CCCC(F)(F)F)(c2ccc(F)cc2)C(=O)N1Cc1ccc(C(F)(F)F)c(C(=O)N2Cc3cnc(-c4ccncc4)nc3C2)c1` [Compound 53, (5R)-5-(4-fluorophenyl)-2-imino-3-{3-[(2-pyridin-4-yl-5,7-dihydro-6H-pyrrolo[3,4-d]pyrimidin-6-yl)carbonyl]-4-(trifluoromethyl)-benzyl}-5-(4,4,4-trifluorobutyl)-imidazolidin-4-one]: the half-maximal inhibitory concentration (IC50) came to 5.63 nM.
